Experimental data: article PMC9329436, “Optimization of the 4-anilinoquin(az)oline scaffold as epidermal growth factor receptor (EGFR) inhibitors for chordoma utilizing a toxicology profiling assay platform” (Scientific Reports, 2022)
Like-named read-outs stand apart in the source and are kept apart here.

What was measured:
Assay type in all cases: biochemical
[1] = molecular target: T1, 320 wild-type protein kinases (Homo sapiens, UniProt Q99683); conditions: singlicate
T1 sequence (Q99683 1-1374): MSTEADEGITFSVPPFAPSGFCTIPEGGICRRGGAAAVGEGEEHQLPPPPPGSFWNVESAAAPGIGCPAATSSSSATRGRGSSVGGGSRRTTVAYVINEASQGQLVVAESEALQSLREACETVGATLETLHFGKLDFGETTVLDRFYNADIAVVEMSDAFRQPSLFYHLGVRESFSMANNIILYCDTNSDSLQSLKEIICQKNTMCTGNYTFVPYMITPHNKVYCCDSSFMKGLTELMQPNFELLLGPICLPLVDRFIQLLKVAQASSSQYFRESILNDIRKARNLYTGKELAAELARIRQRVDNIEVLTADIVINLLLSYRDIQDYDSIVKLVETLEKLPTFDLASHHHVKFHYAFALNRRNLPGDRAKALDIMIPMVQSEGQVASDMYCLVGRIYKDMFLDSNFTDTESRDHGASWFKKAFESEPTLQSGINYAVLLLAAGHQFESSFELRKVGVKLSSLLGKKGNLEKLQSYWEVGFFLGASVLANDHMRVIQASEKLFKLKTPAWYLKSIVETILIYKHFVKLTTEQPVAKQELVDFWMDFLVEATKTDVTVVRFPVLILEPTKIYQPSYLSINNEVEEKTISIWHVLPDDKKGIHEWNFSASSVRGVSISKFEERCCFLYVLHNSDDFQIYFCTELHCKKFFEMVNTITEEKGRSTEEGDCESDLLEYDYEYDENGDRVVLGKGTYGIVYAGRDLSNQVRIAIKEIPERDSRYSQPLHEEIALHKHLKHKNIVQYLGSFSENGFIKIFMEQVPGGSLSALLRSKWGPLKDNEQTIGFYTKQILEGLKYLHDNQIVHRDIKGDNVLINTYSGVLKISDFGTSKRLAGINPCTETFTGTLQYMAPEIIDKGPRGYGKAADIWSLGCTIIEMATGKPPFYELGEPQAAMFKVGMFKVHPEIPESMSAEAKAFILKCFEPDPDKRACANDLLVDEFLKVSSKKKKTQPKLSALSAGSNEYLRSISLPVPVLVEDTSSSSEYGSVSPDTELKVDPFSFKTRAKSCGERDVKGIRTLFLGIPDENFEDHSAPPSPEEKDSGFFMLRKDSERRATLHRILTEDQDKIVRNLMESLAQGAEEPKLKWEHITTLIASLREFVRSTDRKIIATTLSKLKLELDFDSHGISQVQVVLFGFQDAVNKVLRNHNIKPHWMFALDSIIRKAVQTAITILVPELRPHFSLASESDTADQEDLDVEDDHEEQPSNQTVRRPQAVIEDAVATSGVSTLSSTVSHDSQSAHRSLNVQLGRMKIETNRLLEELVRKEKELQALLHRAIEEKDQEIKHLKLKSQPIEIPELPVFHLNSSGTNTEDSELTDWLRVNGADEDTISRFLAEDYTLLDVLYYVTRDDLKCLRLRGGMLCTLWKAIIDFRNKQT
Text: (§1) Table S4. Profiling of two compounds at two concentrations against 320 wild-type protein kinases; singlicate measurement; Residual activities (% of control).

[2] = molecular target: T2, 320 wild-type protein kinases (Homo sapiens, UniProt Q96PF2); conditions: kinase TSK2, singlicate
T2 sequence (Q96PF2 1-358): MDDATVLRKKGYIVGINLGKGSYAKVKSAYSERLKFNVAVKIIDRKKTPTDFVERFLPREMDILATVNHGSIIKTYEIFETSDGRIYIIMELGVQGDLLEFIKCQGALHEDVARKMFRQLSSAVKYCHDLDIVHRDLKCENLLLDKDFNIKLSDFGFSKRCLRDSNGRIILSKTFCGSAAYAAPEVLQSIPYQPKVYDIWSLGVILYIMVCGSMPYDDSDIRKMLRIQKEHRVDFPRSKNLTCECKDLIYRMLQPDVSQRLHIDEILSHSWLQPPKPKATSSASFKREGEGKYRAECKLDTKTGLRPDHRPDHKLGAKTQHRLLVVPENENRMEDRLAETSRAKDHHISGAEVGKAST
Text: as §1

[3] = molecular target: 320 wild-type protein kinases (Homo sapiens, UniProt Q16816); conditions: singlicate
Sequence of 320 wild-type protein kinases (Homo sapiens, UniProt Q16816) (Q16816 whole entry): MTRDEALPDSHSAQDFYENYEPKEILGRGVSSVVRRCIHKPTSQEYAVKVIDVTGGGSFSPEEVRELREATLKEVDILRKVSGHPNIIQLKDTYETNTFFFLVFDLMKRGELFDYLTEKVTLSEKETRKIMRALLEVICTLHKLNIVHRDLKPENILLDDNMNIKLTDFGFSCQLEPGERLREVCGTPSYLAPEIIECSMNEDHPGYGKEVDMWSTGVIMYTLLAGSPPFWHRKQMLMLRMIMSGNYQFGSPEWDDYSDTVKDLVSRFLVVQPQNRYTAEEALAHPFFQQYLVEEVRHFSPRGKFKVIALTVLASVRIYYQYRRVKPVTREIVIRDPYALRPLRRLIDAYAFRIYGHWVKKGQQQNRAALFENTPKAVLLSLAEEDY
Text: as §1

[4] = molecular target: 320 wild-type protein kinases (Homo sapiens, UniProt P42684); conditions: singlicate
Sequence of 320 wild-type protein kinases (Homo sapiens, UniProt P42684) (P42684 whole entry): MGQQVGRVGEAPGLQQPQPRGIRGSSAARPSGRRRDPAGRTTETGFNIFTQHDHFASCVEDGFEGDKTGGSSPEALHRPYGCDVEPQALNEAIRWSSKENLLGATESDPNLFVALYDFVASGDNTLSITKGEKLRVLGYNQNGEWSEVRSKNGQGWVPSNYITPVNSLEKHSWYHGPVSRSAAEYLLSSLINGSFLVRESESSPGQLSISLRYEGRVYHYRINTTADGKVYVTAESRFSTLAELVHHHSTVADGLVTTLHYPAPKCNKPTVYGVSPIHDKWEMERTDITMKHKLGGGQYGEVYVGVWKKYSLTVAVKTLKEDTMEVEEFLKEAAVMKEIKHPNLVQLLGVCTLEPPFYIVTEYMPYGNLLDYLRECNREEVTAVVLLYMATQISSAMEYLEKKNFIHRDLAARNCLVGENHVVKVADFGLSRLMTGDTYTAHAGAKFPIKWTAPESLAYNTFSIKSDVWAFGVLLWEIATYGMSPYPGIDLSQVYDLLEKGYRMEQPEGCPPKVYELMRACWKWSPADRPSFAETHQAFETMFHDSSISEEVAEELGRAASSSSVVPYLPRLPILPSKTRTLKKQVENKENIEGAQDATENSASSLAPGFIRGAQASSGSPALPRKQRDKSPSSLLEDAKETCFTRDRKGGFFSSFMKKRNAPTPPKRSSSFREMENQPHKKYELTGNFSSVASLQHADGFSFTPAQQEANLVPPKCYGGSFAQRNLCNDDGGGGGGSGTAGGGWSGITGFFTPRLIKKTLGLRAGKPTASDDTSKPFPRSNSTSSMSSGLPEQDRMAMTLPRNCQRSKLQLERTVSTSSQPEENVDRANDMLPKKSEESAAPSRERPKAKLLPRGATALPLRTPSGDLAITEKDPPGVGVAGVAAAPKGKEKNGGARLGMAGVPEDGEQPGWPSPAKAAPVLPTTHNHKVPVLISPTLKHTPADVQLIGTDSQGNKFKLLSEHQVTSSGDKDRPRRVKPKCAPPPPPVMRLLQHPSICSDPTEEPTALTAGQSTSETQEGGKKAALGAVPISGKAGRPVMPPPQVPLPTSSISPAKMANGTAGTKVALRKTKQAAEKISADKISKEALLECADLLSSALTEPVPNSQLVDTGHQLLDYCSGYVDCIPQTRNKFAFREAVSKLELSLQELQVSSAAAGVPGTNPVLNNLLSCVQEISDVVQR
Text: as §1

[5] = molecular target: 320 wild-type protein kinases (Homo sapiens, UniProt Q16620); conditions: kinase TRK-B, singlicate
Sequence of 320 wild-type protein kinases (Homo sapiens, UniProt Q16620) (Q16620 32-822): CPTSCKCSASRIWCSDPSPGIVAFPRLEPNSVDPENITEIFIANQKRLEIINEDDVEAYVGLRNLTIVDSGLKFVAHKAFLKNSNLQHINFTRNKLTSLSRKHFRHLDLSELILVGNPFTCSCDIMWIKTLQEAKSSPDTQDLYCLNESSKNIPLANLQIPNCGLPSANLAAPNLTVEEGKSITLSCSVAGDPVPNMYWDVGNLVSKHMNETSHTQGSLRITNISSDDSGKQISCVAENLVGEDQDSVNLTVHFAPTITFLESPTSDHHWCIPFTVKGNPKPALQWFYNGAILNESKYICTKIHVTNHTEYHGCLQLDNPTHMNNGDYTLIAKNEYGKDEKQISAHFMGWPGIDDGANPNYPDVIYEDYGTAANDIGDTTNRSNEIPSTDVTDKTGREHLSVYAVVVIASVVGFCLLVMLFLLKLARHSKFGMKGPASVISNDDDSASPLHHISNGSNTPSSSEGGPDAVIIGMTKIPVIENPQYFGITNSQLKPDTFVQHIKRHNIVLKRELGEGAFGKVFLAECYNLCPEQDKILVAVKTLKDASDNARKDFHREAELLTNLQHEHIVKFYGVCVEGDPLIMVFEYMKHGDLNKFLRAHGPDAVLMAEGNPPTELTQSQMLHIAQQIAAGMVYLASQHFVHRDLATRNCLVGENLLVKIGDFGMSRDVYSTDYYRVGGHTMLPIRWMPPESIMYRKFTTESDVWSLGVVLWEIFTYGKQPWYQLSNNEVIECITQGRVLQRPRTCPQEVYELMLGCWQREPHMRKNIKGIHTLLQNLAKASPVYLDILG
Text: as §1

[6] = molecular target: T3, 320 wild-type protein kinases (Homo sapiens, UniProt Q99759); conditions: singlicate
T3 sequence (Q99759 1-626): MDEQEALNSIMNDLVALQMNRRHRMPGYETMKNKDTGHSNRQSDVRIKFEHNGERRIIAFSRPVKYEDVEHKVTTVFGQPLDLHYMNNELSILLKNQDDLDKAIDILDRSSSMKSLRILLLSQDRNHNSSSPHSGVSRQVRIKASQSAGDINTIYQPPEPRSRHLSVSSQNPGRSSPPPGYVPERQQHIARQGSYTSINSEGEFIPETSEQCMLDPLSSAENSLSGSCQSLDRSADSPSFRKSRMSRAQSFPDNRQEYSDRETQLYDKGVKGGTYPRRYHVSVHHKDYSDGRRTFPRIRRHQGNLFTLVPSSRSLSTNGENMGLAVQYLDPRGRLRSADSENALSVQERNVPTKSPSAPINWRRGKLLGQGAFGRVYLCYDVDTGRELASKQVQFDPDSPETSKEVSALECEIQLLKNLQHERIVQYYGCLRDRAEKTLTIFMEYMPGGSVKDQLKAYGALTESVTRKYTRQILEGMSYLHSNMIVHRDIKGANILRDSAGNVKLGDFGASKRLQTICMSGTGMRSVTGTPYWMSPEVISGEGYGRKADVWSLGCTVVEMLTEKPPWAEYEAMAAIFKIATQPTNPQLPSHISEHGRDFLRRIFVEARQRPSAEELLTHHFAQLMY
Text: as §1

[7] = molecular target: 320 wild-type protein kinases (Homo sapiens, UniProt Q9P289); conditions: singlicate
Sequence of 320 wild-type protein kinases (Homo sapiens, UniProt Q9P289) (Q9P289 whole entry): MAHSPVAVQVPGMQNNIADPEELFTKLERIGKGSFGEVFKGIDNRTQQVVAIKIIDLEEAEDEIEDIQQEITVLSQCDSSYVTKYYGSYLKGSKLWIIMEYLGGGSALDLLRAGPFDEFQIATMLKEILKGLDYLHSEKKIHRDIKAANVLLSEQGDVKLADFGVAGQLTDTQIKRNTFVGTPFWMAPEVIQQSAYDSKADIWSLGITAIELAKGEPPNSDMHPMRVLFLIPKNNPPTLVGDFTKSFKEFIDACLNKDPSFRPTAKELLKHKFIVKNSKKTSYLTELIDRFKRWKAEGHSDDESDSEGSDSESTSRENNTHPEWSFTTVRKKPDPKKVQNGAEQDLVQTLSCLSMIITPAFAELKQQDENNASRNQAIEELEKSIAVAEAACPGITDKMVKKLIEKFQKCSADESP
Text: as §1

[8] = molecular target: 320 wild-type protein kinases (Homo sapiens, UniProt P11362); conditions: singlicate
Sequence of 320 wild-type protein kinases (Homo sapiens, UniProt P11362) (P11362 22-822): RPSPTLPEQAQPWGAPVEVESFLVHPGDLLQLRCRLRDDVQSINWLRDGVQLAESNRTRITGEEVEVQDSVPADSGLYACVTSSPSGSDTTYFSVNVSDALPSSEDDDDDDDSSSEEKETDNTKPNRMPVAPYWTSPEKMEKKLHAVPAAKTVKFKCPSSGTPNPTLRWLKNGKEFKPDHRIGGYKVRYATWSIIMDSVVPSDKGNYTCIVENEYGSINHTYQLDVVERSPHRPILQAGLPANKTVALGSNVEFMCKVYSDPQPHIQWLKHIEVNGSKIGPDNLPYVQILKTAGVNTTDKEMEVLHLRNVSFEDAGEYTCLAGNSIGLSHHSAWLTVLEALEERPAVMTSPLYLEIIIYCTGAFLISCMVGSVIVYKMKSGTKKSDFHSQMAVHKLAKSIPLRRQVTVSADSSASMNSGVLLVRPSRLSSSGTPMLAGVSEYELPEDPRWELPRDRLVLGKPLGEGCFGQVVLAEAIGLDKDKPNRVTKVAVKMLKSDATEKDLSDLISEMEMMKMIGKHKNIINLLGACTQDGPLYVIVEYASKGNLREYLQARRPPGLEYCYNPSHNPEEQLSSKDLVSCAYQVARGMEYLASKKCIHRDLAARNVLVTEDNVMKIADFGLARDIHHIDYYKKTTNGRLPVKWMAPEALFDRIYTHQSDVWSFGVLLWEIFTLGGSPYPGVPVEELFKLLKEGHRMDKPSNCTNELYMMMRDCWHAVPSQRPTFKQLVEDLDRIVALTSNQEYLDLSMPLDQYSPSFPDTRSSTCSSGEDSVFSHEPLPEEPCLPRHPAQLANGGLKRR
Text: as §1

Question: Which Residual activity ([1]; ASK1, 1.0E-06 M) does the source give for `C#Cc1cc(Nc2ncnc3cc(I)ccc23)ccc1Cl` [Compound 41] here?
Answer: The Residual activity was 99 % of control.

Question: And the Residual activity ([1]; ASK1, 1.0E-07 M)?
Answer: The Residual activity was 95 % of control.

Question: What about the “Residual activity, TSK2” value ([2]; assay conc. 1.0E-06 M) of the same compound?
Answer: Its value is 123 % of control.

Question: What about the “Residual activity, TSK2” value ([2]; assay conc. 1.0E-07 M) of the same compound?
Answer: The value was 113 % of control.

Question: What about the Residual activity ([3]; PHKG1, 1.0E-06 M) of the same compound?
Answer: The Residual activity was 94 % of control.

Question: And the Residual activity ([3]; PHKG1, 1.0E-07 M)?
Answer: Its Residual activity is 97 % of control.

Question: And the Residual activity ([4]; ABL2, 1.0E-06 M)?
Answer: The Residual activity was 97 % of control.

Question: What about the Residual activity ([4]; ABL2, 1.0E-07 M) of the same compound?
Answer: Its Residual activity is 106 % of control.

Question: What about the “Residual activity, TRK-B” value ([5]; assay conc. 1.0E-06 M) of the same compound?
Answer: The value was 98 % of control.

Question: What about the “Residual activity, TRK-B” value ([5]; assay conc. 1.0E-07 M) of the same compound?
Answer: The value was 107 % of control.

Question: And the Residual activity ([6]; MEKK3, 1.0E-06 M)?
Answer: Its Residual activity is 107 % of control.

Question: And the Residual activity ([6]; MEKK3, 1.0E-07 M)?
Answer: Its Residual activity is 106 % of control.

Question: And the Residual activity ([7]; MST4, 1.0E-06 M)?
Answer: The Residual activity was 89 % of control.

Question: And the Residual activity ([7]; MST4, 1.0E-07 M)?
Answer: Its Residual activity is 101 % of control.

Question: What about the Residual activity ([8]; FGF-R1, 1.0E-06 M) of the same compound?
Answer: Its Residual activity is 85 % of control.

Question: What about the Residual activity ([8]; FGF-R1, 1.0E-07 M) of the same compound?
Answer: The Residual activity was 107 % of control.

Question: Which results are given for `C#Cc1cc(Nc2ncnc3cc(OC)c(OC)cc23)ccc1Cl` [Compound 45]?
Answer: Residual activity ([1]; ASK1, 1.0E-06 M): 99 % of control; Residual activity ([1]; ASK1, 1.0E-07 M): 93 % of control; Residual activity, TSK2 ([2]; assay conc. 1.0E-06 M): 331 % of control; Residual activity, TSK2 ([2]; assay conc. 1.0E-07 M): 109 % of control; Residual activity ([3]; PHKG1, 1.0E-06 M): 85 % of control; Residual activity ([3]; PHKG1, 1.0E-07 M): 108 % of control; Residual activity ([4]; ABL2, 1.0E-06 M): 68 % of control; Residual activity ([4]; ABL2, 1.0E-07 M): 96 % of control; Residual activity, TRK-B ([5]; assay conc. 1.0E-06 M): 97 % of control; Residual activity, TRK-B ([5]; assay conc. 1.0E-07 M): 98 % of control; Residual activity ([6]; MEKK3, 1.0E-06 M): 117 % of control; Residual activity ([6]; MEKK3, 1.0E-07 M): 115 % of control; Residual activity ([7]; MST4, 1.0E-06 M): 97 % of control; Residual activity ([7]; MST4, 1.0E-07 M): 92 % of control; Residual activity ([8]; FGF-R1, 1.0E-06 M): 92 % of control; Residual activity ([8]; FGF-R1, 1.0E-07 M): 100 % of control
